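The compound was tested at five concentrations on cells cultured in 96-well plates, with a 48-hour exposure period. GI50 marks 50% less growth. TGI marks complete inhibition of growth.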
How the values were obtained:
Assay in all cases: inhibition of tumour cell growth, NCI panel, 48 h
[1] = system: 786-0 renal
[2] = system: A498 renal
[3] = system: A549 NSCLC
[4] = system: ACHN renal
[5] = system: BT-549 breast
[6] = system: CAKI-1 renal
[7] = system: CCRF-CEM leukemia
[8] = system: COLO 205 colon
[9] = system: DU-145 prostate
[10] = system: EKVX NSCLC
[11] = system: HCT-116 colon
[12] = system: HCT-15 colon
[13] = system: HL-60(TB) leukemia
[14] = system: HOP-62 NSCLC
[15] = system: HOP-92 NSCLC
[16] = system: HS 578T breast
[17] = system: IGROV1 ovarian
[18] = system: K-562 leukemia
[19] = system: KM12 colon
[20] = system: LOX IMVI melanoma
[21] = system: M14 melanoma
[22] = system: MCF7 breast
[23] = system: MDA-MB-231 breast
[24] = system: MDA-MB-435
[25] = system: MOLT-4 leukemia
[26] = system: NCI-H460 lung
[27] = system: NCI-H522 lung
[28] = system: OVCAR-3 ovarian
[29] = system: OVCAR-8 ovarian
[30] = system: PC-3 prostate
[31] = system: RPMI-8226 leukemia
[32] = system: RXF 393 renal
[33] = system: SF-268 CNS
[34] = system: SF-295 CNS
[35] = system: SF-539 CNS
[36] = system: SK-MEL-2 melanoma
[37] = system: SK-MEL-28 melanoma
[38] = system: SK-MEL-5 melanoma
[39] = system: SK-OV-3 ovarian
[40] = system: SN12C renal
[41] = system: SNB-19 CNS
[42] = system: SNB-75 CNS
[43] = system: SR leukemia
[44] = system: SW-620 colon
[45] = system: T-47D breast
[46] = system: TK-10 renal
[47] = system: U251 CNS
[48] = system: UACC-257 melanoma
[49] = system: UACC-62 melanoma
[50] = system: UO-31 renal
[51] = system: HCC-2998 colon
[52] = system: HT29 colon
[53] = system: MALME-3M melanoma
[54] = system: NCI-H226 lung
[55] = system: NCI-H23 lung
[56] = system: NCI/ADR-RES ovarian
[57] = system: OVCAR-4 ovarian
[58] = system: OVCAR-5 ovarian

With O=C(Nc1sc2c(c1C(=O)O)CCCC2)c1ccco1 the GI50 [1] was > 50 µM, the TGI [1] was > 50 µM and the GI50 [2] was > 50 µM. The TGI [2] was > 50 µM, the GI50 [3] was 19.1 µM and the TGI [3] was > 50 µM. For the same compound, the GI50 [4] was 14.1 µM, the TGI [4] was > 50 µM and the GI50 [5] was > 50 µM. The TGI [5] was > 50 µM, the GI50 [6] was 44.1 µM and the TGI [6] was > 50 µM. For the same compound, the GI50 [7] was > 50 µM, the TGI [7] was > 50 µM and the GI50 [8] was 44.2 µM. For the same compound, the TGI [8] was > 50 µM, the GI50 [9] was > 50 µM and the TGI [9] was > 50 µM. The GI50 [10] was 36.3 µM, the TGI [10] was > 50 µM and the GI50 [11] was 31 µM. For the same compound, the TGI [11] was > 50 µM, the GI50 [12] was 30.6 µM and the TGI [12] was > 50 µM. The GI50 [13] was > 50 µM, the TGI [13] was > 50 µM and the GI50 [14] was > 50 µM. For the same compound, the TGI [14] was > 50 µM, the GI50 [15] was > 50 µM and the TGI [15] was > 50 µM. For the same compound, the GI50 [16] was > 50 µM, the TGI [16] was > 50 µM and the GI50 [17] was > 50 µM. For the same compound, the TGI [17] was > 50 µM, the GI50 [18] was 23.9 µM and the TGI [18] was > 50 µM. The GI50 [19] was 29.5 µM, the TGI [19] was > 50 µM and the GI50 [20] was 22.8 µM. For the same compound, the TGI [20] was > 50 µM, the GI50 [21] was > 50 µM and the TGI [21] was > 50 µM. For the same compound, the GI50 [22] was 26.5 µM, the TGI [22] was > 50 µM and the GI50 [23] was > 50 µM. For the same compound, the TGI [23] was > 50 µM, the GI50 [24] was > 50 µM and the TGI [24] was > 50 µM. For the same compound, the GI50 [25] was > 50 µM, the TGI [25] was > 50 µM and the GI50 [26] was 23.5 µM. For the same compound, the TGI [26] was > 50 µM, the GI50 [27] was > 50 µM and the TGI [27] was > 50 µM. The GI50 [28] was > 50 µM, the TGI [28] was > 50 µM and the GI50 [29] was > 50 µM. The TGI [29] was > 50 µM, the GI50 [30] was 45.9 µM and the TGI [30] was > 50 µM. For the same compound, the GI50 [31] was > 50 µM, the TGI [31] was > 50 µM and the GI50 [32] was > 50 µM. The TGI [32] was > 50 µM, the GI50 [33] was 25.7 µM and the TGI [33] was > 50 µM. The GI50 [34] was 26.3 µM, the TGI [34] was > 50 µM and the GI50 [35] was 47.5 µM. The TGI [35] was > 50 µM, the GI50 [36] was > 50 µM and the TGI [36] was > 50 µM. The GI50 [37] was > 50 µM, the TGI [37] was > 50 µM and the GI50 [38] was > 50 µM. For the same compound, the TGI [38] was > 50 µM, the GI50 [39] was > 50 µM and the TGI [39] was > 50 µM. It also gave a GI50 [40] of 8.63 µM, a TGI [40] of 42 µM and a GI50 [41] of 29.5 µM. For the same compound, the TGI [41] was > 50 µM, the GI50 [42] was > 50 µM and the TGI [42] was > 50 µM. The GI50 [43] was 46.2 µM, the TGI [43] was > 50 µM and the GI50 [44] was > 50 µM. The TGI [44] was > 50 µM, the GI50 [45] was > 50 µM and the TGI [45] was > 50 µM. For the same compound, the GI50 [46] was > 50 µM, the TGI [46] was > 50 µM and the GI50 [47] was 16.4 µM. For the same compound, the TGI [47] was > 50 µM, the GI50 [48] was > 50 µM and the TGI [48] was > 50 µM. For the same compound, the GI50 [49] was > 50 µM, the TGI [49] was > 50 µM and the GI50 [50] was > 50 µM. For the same compound, the TGI [50] was > 50 µM.

CCCCNC(c1ccc(Cl)cc1)C(O)c1ccc(Cl)cc1 (centres undefined) showed a GI50 [1] of 1.59 µM, a TGI [1] of 3.95 µM and a GI50 [2] of 2.29 µM. The TGI [2] was 5.57 µM, the GI50 [3] was 3.87 µM and the TGI [3] was 17.8 µM. The GI50 [4] was 2.46 µM, the TGI [4] was 7.36 µM and the GI50 [5] was 5.63 µM. For the same compound, the TGI [5] was 21.4 µM, the GI50 [6] was 1.82 µM and the TGI [6] was 6.63 µM. The GI50 [7] was 2.49 µM, the TGI [7] was 8.65 µM and the GI50 [8] was 1.56 µM. The TGI [8] was 3.25 µM, the GI50 [9] was 3.1 µM and the TGI [9] was 10.4 µM. It also gave a GI50 [10] of 2.76 µM, a TGI [10] of 14.7 µM and a GI50 [51] of 1.83 µM. The TGI [51] was 3.85 µM, the GI50 [11] was 0.938 µM and the TGI [11] was 2.27 µM. The GI50 [12] was 2.08 µM, the TGI [12] was 5.7 µM and the GI50 [13] was 1.02 µM. For the same compound, the TGI [13] was 2.93 µM, the GI50 [14] was 2.19 µM and the TGI [14] was 9.71 µM. For the same compound, the GI50 [15] was 1.13 µM, the TGI [15] was 5.16 µM and the GI50 [16] was 4.98 µM. The TGI [16] was 26.9 µM, the GI50 [52] was 0.792 µM and the TGI [52] was 2.74 µM. It also gave a GI50 [17] of 2.41 µM, a TGI [17] of 12.4 µM and a GI50 [18] of 2.11 µM. For the same compound, the TGI [18] was 5.68 µM, the GI50 [19] was 2.04 µM and the TGI [19] was 5.34 µM. For the same compound, the GI50 [20] was 1.39 µM, the TGI [20] was 2.7 µM and the GI50 [21] was 1.22 µM. The TGI [21] was 2.9 µM, the GI50 [53] was 1.52 µM and the TGI [53] was 3.08 µM. The GI50 [22] was 1.95 µM, the TGI [22] was 5.03 µM and the GI50 [24] was 1.61 µM. The TGI [24] was 3.57 µM, the GI50 [25] was 1.67 µM and the TGI [25] was 6.67 µM. The GI50 [54] was 6.58 µM, the TGI [54] was 25.1 µM and the GI50 [55] was 2.25 µM. It also gave a TGI [55] of 7.59 µM, a GI50 [26] of 1.76 µM and a TGI [26] of 4.41 µM. The GI50 [27] was 1.56 µM, the TGI [27] was 3.51 µM and the GI50 [56] was 1.81 µM. The TGI [56] was 5.35 µM, the GI50 [28] was 1.98 µM and the TGI [28] was 4.83 µM. It also gave a GI50 [57] of 2.87 µM, a TGI [57] of 13.5 µM and a GI50 [58] of 2.94 µM. For the same compound, the TGI [58] was 15.7 µM, the GI50 [29] was 2.51 µM and the TGI [29] was 6.02 µM. It also gave a GI50 [30] of 1.92 µM, a TGI [30] of 7.47 µM and a GI50 [31] of 2.09 µM. The TGI [31] was 5.51 µM, the GI50 [32] was 1.49 µM and the TGI [32] was 3.65 µM. For the same compound, the GI50 [33] was 3.21 µM, the TGI [33] was 16.3 µM and the GI50 [34] was 1.02 µM. For the same compound, the TGI [34] was 2.44 µM, the GI50 [35] was 1.83 µM and the TGI [35] was 3.57 µM. It also gave a GI50 [36] of 1.81 µM, a TGI [36] of 3.68 µM and a GI50 [37] of 2.06 µM. For the same compound, the TGI [37] was 4.5 µM, the GI50 [38] was 1.73 µM and the TGI [38] was 3.2 µM. The GI50 [39] was 5.72 µM, the TGI [39] was 20 µM and the GI50 [40] was 2.16 µM. It also gave a TGI [40] of 10.6 µM, a GI50 [41] of 2.09 µM and a TGI [41] of 5.74 µM. It also gave a GI50 [42] of 1.93 µM, a TGI [42] of 11.4 µM and a GI50 [43] of 1.07 µM. The TGI [43] was 3.75 µM, the GI50 [44] was 1.78 µM and the TGI [44] was 3.93 µM. The GI50 [45] was 1.67 µM, the TGI [45] was 4.52 µM and the GI50 [46] was 2.2 µM. For the same compound, the TGI [46] was 6.99 µM, the GI50 [47] was 1.75 µM and the TGI [47] was 3.65 µM. The GI50 [48] was 2.25 µM, the TGI [48] was 5.03 µM and the GI50 [49] was 1.49 µM. For the same compound, the TGI [49] was 3.18 µM, the GI50 [50] was 1.55 µM and the TGI [50] was 10.2 µM.

— PubChem BioAssay (NCI)
